Measurements as given in US20250388575A1, “HETEROBIFUNCTIONAL COMPOUNDS AND METHODS OF TREATING DISEASE” (Halda Therapeutics OpCo, Inc., priority 2022, published 2025).
Read-outs that look alike come from different tables or passages of the source.

What was measured:
[1] = tested on: T-Rex 293 cell line SC3 cells having increased expression of androgen receptor protein; assay: Cellular growth inhibition, T-Rex 293 SC3 cells with increased androgen receptor expression (doxycycline), CellTiter-Glo; type: cell-based
Protocol: (§1) The following types of cells were prepared for this experiment: (i) a T-Rex 293 cell line having increased expression of androgen receptor protein due to exposure to doxycycline and (ii) a T-Rex 293 cell line lacking increased expression of androgen receptor protein. Ability of the test compounds to inhibit proliferation of the foregoing cell types was evaluated according to the procedures set forth below.
(§2) The doxycycline-inducible androgen receptor protein expressing cell line was established using the following protocol: T-Rex 293 cells were purchased from Invitrogen (Cat #R71007) and transfected using Lipofectamine 2000 with the wild-type androgen receptor protein sequence cloned into the pcDNA4/TO vector. Transfected cells were selected using 400 μg/mL Zeocin (Invitrogen Cat #R25001). Following selection, single clones were raised and maintained in Dulbecco's Modified Eagle Medium (DMEM) supplemented with 10% w/w Tetracycline-free fetal bovine serum (FBS) and 250 μg/mL Zeocin. Clones were analyzed for expression of androgen receptor protein in the presence and absence of 10 ng/ml doxycycline (Sigma Cat #D9891), and a single doxycycline-inducible clone (hereinafter “SC3”) was selected for use in downstream assays.
(§3) The SC3 cells were seeded on poly-D-lysine coated, black clear-bottom 384-well plates at 2500/well, in 25 μL Phenol Red Free Dulbecco's Modified Eagle Medium (DMEM) supplemented with 10% w/w charcoal-dextran treated fetal bovine serum (FBS) and 1% w/w pen-strep, with or without 10 ng/mL doxycycline. Pen-Strep is a commercially available mixture of penicillin G and streptomycin, which is used in mammalian cell culture media to prevent bacterial contamination. Phenol Red Free Dulbecco's Modified Eagle Medium (DMEM) supplemented with 10% w/w charcoal-dextran treated fetal bovine serum (FBS) and 1% w/w pen-strep, with or without 10 ng/mL doxycycline is herein referred to as Treatment Medium. Following seeding of cells in the plates, the plates were spun at 300×g for 30 seconds, then equilibrated to room temperature for 30 minutes, and then deposited in a humidified tissue culture incubator maintained at 37° C. with 5% CO2.
(§4) At 24 hours after seeding of the cells, dilutions of test compound were prepared in DMSO and dissolved in Treatment Medium, to achieve a final DMSO concentration of 0.5% w/w, thereby providing the Test Compound Solution. A 25 μL aliquot of the Test Compound Solution was added to cells in the well plates. An equal volume of a solution containing DMSO and Treatment Medium was used as a negative control. Following treatment of cells with Test Compound Solution or said equal volume of a solution containing DMSO and Treatment Medium, the plates were spun at 300×g for 30 seconds, and then left in an incubator for 72 hours.
(§5) At the end of the treatment duration, cell viability was quantified with CellTiter-Glo 2.0 reagent (Promega Cat #G9243). For this purpose, plates were equilibrated to room temperature for 30 minutes, and then 25 μL of CellTiter-Glo 2.0 reagent was added to cells in the plate wells. Plates were then agitated on a shaker for two minutes at 500 rpm and subsequently incubated at room temperature for 10 minutes. Following incubation, the plates were spun at 3000×g for 30 seconds, then sealed with an optical adhesive cover, and luminescence readings were measured with an EnVision Plate Reader.
(§6) Data was normalized using zero luminescence for baseline. A four-parameter non-linear regression curve fit was applied to dose-response data in GraphPad Prism data analysis software to determine the half-maximal growth inhibitory concentration (GI50) for each test compound.

[2] = tested on: T-Rex 293 cell line SC3 cells lacking increased expression of androgen receptor protein; assay: Cellular growth inhibition, T-Rex 293 SC3 cells lacking increased androgen receptor expression (no doxycycline), CellTiter-Glo; type: cell-based
Protocol: as §1, §2, §3, §4, §5, §6

[3] = tested on: VCaP cells; assay: Cellular growth inhibition assay for VCaP cells, CellTiter-Glo; type: cell-based, human
Protocol: VCaP cells were purchased from American Type Cell Culture (ATCC Cat #CRL2876) and then seeded on poly-D-lysine coated, black clear-bottom 384-well plates at 5000/well in 25 μL Dulbecco's Modified Eagle Medium (DMEM) supplemented with 10% w/w Fetal bovine serum (FBS) and 1% w/w Pen-Strep. Pen-Strep is a commercially available mixture of penicillin G and streptomycin, which is used in mammalian cell culture media to prevent bacterial contamination. Dulbecco's Modified Eagle Medium (DMEM) supplemented with 10% w/w fetal bovine serum (FBS) and 1% w/w Pen-Strep is herein referred to as Treatment Medium. Following seeding of cells in the plates, the plates were spun at 300×g for 30 seconds, then equilibrated to room temperature for 30 minutes, and then deposited in a humidified tissue culture incubator maintained at 37° C. with 5% CO2.
as §4, §5, §6

[4] = T-Rex 293 SC3 cells with increased androgen receptor expression (exposed to 10 ng/mL doxycycline), 72 hours, CellTiter-Glo, read-out: GI50
[5] = T-Rex 293 SC3 cells lacking increased androgen receptor expression (not exposed to doxycycline), 72 hours, CellTiter-Glo, read-out: GI50
[6] = Homo sapiens, VCaP cells, 72 hours, CellTiter-Glo, read-out: GI50
[7] = VCaP cells, 72 hours, CellTiter-Glo, read-out: GI50

| GI50 [3, 6] [nM] | GI50 [3, 7] [nM] | Structure (SMILES) | GI50 [1, 4] [nM] | GI50 [2, 5] [nM] | GI50 ([1]; 72 h) [nM] | GI50 ([2]; 72 h) [nM] | GI50 ([3]; Homo sapiens, VCaP, 72 h) [nM] |
| --- | --- | --- | --- | --- | --- | --- | --- |
|  |  | CCS(=O)(=O)Nc1ccc(Oc2cccc(OCCOCCOCCOCCOCCOCCOCCOC3CCN(c4ccc(C(=O)N[C@H]5CC[C@H](Oc6ccc(C#N)c(Cl)c6)CC5)nn4)CC3)c2)c(-c2cn(C)c(=O)c3[nH]ccc23)c1 [I-4, N-[4-(3-chloro-4-cyano-phenoxy)cyclohexyl]-6-[4-[2-[2-[2-[2-[2-[2-[2-[3-[4-(ethylsulfonylamino)-2-(6-methyl-7-oxo-1H-pyrrolo[2,3-c]pyridin-4-yl)phenoxy]phenoxy]ethoxy]ethoxy]ethoxy]ethoxy]ethoxy]ethoxy]ethoxy]-1-piperidyl]pyridazine-3-carboxamide] | < 500 | 1500 to 3000 |  |  |  |
| < 500 |  | CCS(=O)(=O)Nc1ccc(Oc2cccc(OCCOC3CCN(c4ncc(C(=O)N[C@H]5CC[C@H](Oc6ccc(C#N)c(Cl)c6)CC5)cn4)CC3)c2)c(-c2cn(C)c(=O)c3[nH]ccc23)c1 [I-5, N-[4-(3-chloro-4-cyano-phenoxy)cyclohexyl]-2-[4-[2-[3-[4-(ethylsulfonylamino)-2-(6-methyl-7-oxo-1H-pyrrolo[2,3-c]pyridin-4-yl)phenoxy]phenoxy]ethoxy]-1-piperidyl]pyrimidine-5-carboxamide] | < 500 | 500 to 1500 |  |  |  |
| < 500 |  | CCS(=O)(=O)Nc1ccc(Oc2cccc(CCOC3CCN(c4ccc(C(=O)N[C@H]5CC[C@H](Oc6ccc(C#N)c(Cl)c6)CC5)nn4)CC3)c2F)c(-c2cn(C)c(=O)c3[nH]ccc23)c1 [I-11] | < 500 | < 500 |  |  |  |
| < 500 |  | CCS(=O)(=O)Nc1ccc(Oc2cccc(CCCN3CCN(c4ccc(C(=O)N[C@H]5CC[C@H](Oc6ccc(C#N)c(Cl)c6)CC5)nn4)CC3)c2F)c(-c2cn(C)c(=O)c3[nH]ccc23)c1 [I-13] | < 500 | < 500 |  |  |  |
| < 500 |  | CCS(=O)(=O)Nc1ccc(Oc2cccc(OCCN3CCN(c4ccc(C(=O)N[C@H]5CC[C@H](Oc6ccc(C#N)c(Cl)c6)CC5)nn4)CC3)c2F)c(-c2cn(C)c(=O)c3[nH]ccc23)c1 [I-14] | < 500 | < 500 |  |  |  |
| < 500 |  | CCS(=O)(=O)Nc1ccc(Oc2cccc(OCCOC3CCN(c4ccc(C(=O)N[C@H]5CC[C@H](Oc6ccc(C#N)c(Cl)c6)CC5)nn4)CC3)c2F)c(-c2cn(C)c(=O)c3[nH]ccc23)c1 [I-16] | < 500 | < 500 |  |  |  |
| < 500 |  | Cn1cc(-c2cc(NS(=O)(=O)CC(F)(F)F)ccc2Oc2cccc(OCCOC3CCN(c4ccc(C(=O)N[C@H]5CC[C@H](Oc6ccc(C#N)c(Cl)c6)CC5)nn4)CC3)c2F)c2cc[nH]c2c1=O [I-17] | < 500 | < 500 |  |  |  |
| < 500 |  | CCS(=O)(=O)Nc1ccc(Oc2cccc(OCCCC3CCN(c4ccc(C(=O)NC5CCC(Oc6ccc(C#N)c(Cl)c6)CC5)nn4)CC3)c2F)c(-c2cn(C)c(=O)c3[nH]ccc23)c1 (stereo not drawn) [I-18] | < 500 | < 500 |  |  |  |
| < 500 |  | CCS(=O)(=O)Cc1ccc(Oc2cccc(OCCOC3CCN(c4ccc(C(=O)N[C@H]5CC[C@H](Oc6ccc(C#N)c(Cl)c6)CC5)nn4)CC3)c2F)c(-c2cn(C)c(=O)c3[nH]ccc23)c1 [I-22] | < 500 | < 500 |  |  |  |
| < 500 |  | CCS(=O)(=O)c1ccc(Oc2cccc(OCCOC3CCN(c4ccc(C(=O)N[C@H]5CC[C@H](Oc6ccc(C#N)c(Cl)c6)CC5)nn4)CC3)c2F)c(-c2cn(C)c(=O)c3[nH]ccc23)c1 [I-23] | < 500 | < 500 |  |  |  |
| 1500 to 3000 |  | Cn1cc(-c2cc(NS(=O)(=O)C(F)(F)F)ccc2Oc2cccc(OCCOC3CCN(c4ccc(C(=O)N[C@H]5CC[C@H](Oc6ccc(C#N)c(Cl)c6)CC5)nn4)CC3)c2F)c2cc[nH]c2c1=O [I-24] | 500 to 1500 | > 3000 |  |  |  |
| < 500 |  | CCS(=O)(=O)c1ccc(Oc2cccc(CCCOC3CCN(c4ccc(C(=O)N[C@H]5CC[C@H](Oc6ccc(C#N)c(Cl)c6)CC5)nn4)CC3)c2F)c(-c2cn(C)c(=O)c3[nH]ccc23)c1 [I-27] | < 500 | < 500 |  |  |  |
| < 500 |  | CCS(=O)(=O)Nc1ccc(Oc2cccc(OCCOC3CCN(c4cnc(C(=O)N[C@H]5CC[C@H](Oc6ccc(C#N)c(Cl)c6)CC5)cn4)CC3)c2F)c(-c2cn(C)c(=O)c3[nH]ccc23)c1 [I-31] | < 500 | < 500 |  |  |  |
| < 500 |  | CCS(=O)(=O)c1ccc(Oc2cccc(OCCOC3CCN(c4cnc(C(=O)N[C@H]5CC[C@H](Oc6ccc(C#N)c(Cl)c6)CC5)cn4)CC3)c2F)c(-c2cn(C)c(=O)c3[nH]ccc23)c1 [I-32] | < 500 | < 500 |  |  |  |
|  | < 500 | CCS(=O)(=O)Nc1ccc(Oc2ccc(OCCOC3CCN(c4ccc(C(=O)N[C@H]5CC[C@H](Oc6ccc(C#N)c(Cl)c6)CC5)nn4)CC3)cc2)c(-c2cn(C)c(=O)c3[nH]ccc23)c1 [I-34] | < 500 | < 500 |  |  |  |
|  |  | CCS(=O)(=O)Nc1ccc(Oc2cccc(CCCOC3CCN(c4ccc(C(=O)N[C@H]5CC[C@H](Oc6ccc(C#N)c(Cl)c6)CC5)nn4)CC3)c2F)c(-c2cn(C)c(=O)c3[nH]ccc23)c1 [I-37, N-[4-(3-chloro-4-cyano-phenoxy)cyclohexyl]-6-[4-[3-[3-[4-(ethylsulfonylamino)-2-(6-methyl-7-oxo-1H-pyrrolo[2,3-c]pyridin-4-yl)phenoxy]-2-fluoro-phenyl]propoxy]-1-piperidyl]pyridazine-3-carboxamide] |  |  | < 500 | < 500 | < 500 |
| < 500 |  | CCS(=O)(=O)Nc1ccc(Oc2cccc(CCC3CCN(c4ccc(C(=O)N[C@H]5CC[C@H](Oc6ccc(C#N)c(Cl)c6)CC5)nn4)CC3)c2)c(-c2cn(C)c(=O)c3[nH]ccc23)c1 [I-39] | < 500 | > 3000 |  |  |  |
| < 500 |  | CCS(=O)(=O)c1ccc(Oc2ccc(CCC3CCN(c4ccc(C(=O)NC5CCC(Oc6ccc(C#N)c(Cl)c6)CC5)nn4)CC3)cc2F)c(-c2cn(C)c(=O)c3[nH]ccc23)c1 (stereo not drawn) [I-45, N-[4-(3-chloro-4-cyano-phenoxy)cyclohexyl]-6-[4-[2-[4-[4-ethylsulfonyl-2-(6-methyl-7-oxo-1H-pyrrolo[2,3-c]pyridin-4-yl)phenoxy]-3-fluoro-phenyl]ethyl]-1-piperidyl]pyridazine-3-carboxamide] | < 500 | < 500 |  |  |  |
|  | < 500 | CCS(=O)(=O)c1ccc(Oc2cccc(CCCN3CCN(c4ccc(C(=O)N[C@H]5CC[C@H](Oc6ccc(C#N)c(Cl)c6)CC5)nn4)CC3)c2F)c(-c2cn(C)c(=O)c3[nH]ccc23)c1 [I-62] | < 500 | < 500 |  |  |  |
|  | < 500 | CCS(=O)(=O)c1ccc(Oc2ccc(CCN3CC4(C3)CN(c3ccc(C(=O)N[C@H]5CC[C@H](Oc6ccc(C#N)c(Cl)c6)CC5)nn3)C4)cc2)c(-c2cn(C)c(=O)c3[nH]ccc23)c1 [I-63] | < 500 | < 500 |  |  |  |
|  | < 500 | Cn1cc(-c2cc(C(C)(C)O)ccc2Oc2ccc(CCCCC3CCN(c4ccc(C(=O)N[C@H]5CC[C@H](Oc6ccc(C#N)c(Cl)c6)CC5)nn4)CC3)cc2)c2cc[nH]c2c1=O [I-125] |  |  |  |  |  |
